Several values for one entry are separate records, joined by “and”; a condition that tells them apart may be missing. Identical values can stand only once. Entries after “also recorded” stand apart in the source; their conditions may differ.
Key:
[1] = tested on: HCoV-NL63; test: Time-of-addition, CPE-based cell protection (EZ-Cytox), HCoV-NL63/LLC-MK2; set-up: species or system Human coronavirus NL63; settings: HCoV-NL63, 5 µM and 20 µM, 48 h post-infection
Method: For antiviral activity, cells in 96-well plates were infected and treated with test compounds as indicated and incubated for 48–72 h. Cell viability was quantified by WST (EZ-Cytox) at 450 nm on the same reader. Cytoprotective effect was calculated by normalizing to infected DMSO controls and converting to percent protection: % Protection = ((V_drug + virus − V_virus-only)/(V_mock − V_virus-only)) × 100. […]
Unless otherwise specified, infections were carried out at 100 TCID50 per well with 1 h adsorption at 37 °C, and compounds were used at 20 µM. Primary readout was S protein IFA at 48 h; EZ-Cytox and TCID50 at 48 h for the same regimens are provided in Supplementary Data (Figures S14 and S15). […]
(§1) Cell protection (%) was calculated relative to the DMSO control. […] (b) Infectious progeny released under the same TOA conditions, quantified as log10(TCID₅₀/mL) from culture supernatants (see Methods). […]
(§2) Figure S15. […] Cell protection (%) was calculated relative to the DMSO control. […]
(§3) Statistics: one-way ANOVA with Dunnett’s multiple comparisons vs DMSO; *P<0.05, **P<0.01, ***P<0.001, ****P<0.0001. (b) Infectious progeny released under the same TOA conditions, quantified as log₁₀(TCID₅₀/mL) from culture supernatants by endpoint dilution on Vero E6 indicator cells (Spearman–Kärber method; see Methods). […]

[2] = Visible crystals or precipitates in the cell assay (soluble range); type: physicochemical; settings: cell assay medium; without loss of viability or morphological change
Method: (§4) We screened 11 oxazole-4-carboxamide derivatives (Figure 1) against HCoV-NL63 in LLC-MK2 cells and quantified antiviral activity and cytotoxicity (Figure 2). Several derivatives inhibited NL63 with distinct selectivity profiles. […] Visible crystals or precipitates formed at ≥50 µM without loss of viability or morphological change; therefore, downstream assays were performed at ≤25 µM.

[3] = tested on: HCoV-NL63; test: Infectious titer (TCID50) of HCoV-NL63 at 48 h; type: cell-based, Human coronavirus NL63
Method: (§5) HCoV-OC43 (KBPV-VR-8), HCoV-NL63 (KBPV-VR-88), and PEDV DR13 (originally described in [20]) were used. HCoV-NL63 was propagated in LLC-MK2 cells, and HCoV-OC43 and PEDV DR13 were propagated in Vero E6 cells. Virus-containing supernatants were clarified (2000× g, 10 min, 4 °C), aliquoted, and stored at −80 °C. Infectious titers (TCID50/mL) were determined on the corresponding host cell lines by the Spearman–Kärber method with back-titrations included in each experiment.
We sought to confirm whether the antiviral activity observed by RT-qPCR was also present at the level of infectious progeny virus. […] Bars represent mean ± SEM; n = 3 independent experiments (triplicate wells per concentration).

[4] = tested on: PEDV; test: Extracellular viral RNA by RT-qPCR of supernatants, PEDV/Vero E6; type: cell-based; settings: Porcine epidemic diarrhea virus, Vero C1008; PEDV/Vero E6, 72 h post-infection, n = 3
Method: At 72 h post-infection, 100–200 μL of culture supernatant was collected. Viral RNA was extracted using the QIAamp Viral RNA Mini Kit (Qiagen, Hilden, Germany)according to the manufacturer’s instructions and quantified by one-step RT-qPCR on a real-time thermocycler.
(§6) EC50 values were determined from concentration–response curves generated by 2-fold serial dilutions, with at least four concentration points per curve. Each measurement was performed in triplicate technical replicates. Unless otherwise indicated, data are presented as mean ± SEM from three independent biological experiments (n = 3).
(§7) For absolute quantification, synthetic DNA (oligonucleotide) standards corresponding to the NL63, OC43, and PEDV amplicons were used. Ten-fold serial dilutions were prepared to generate standard curves. Ct values were interpolated against the curves to obtain gene copies per reaction and converted to genome copies per mL by accounting for extraction and elution volumes and the qPCR input volume.

[5] = tested on: HCoV-OC43; test: Time-of-addition, TCID50 on Vero E6, HCoV-OC43; type: cell-based, Human coronavirus OC43; settings: HCoV-OC43, titrated on Vero E6, 48 h
Method: as §5
For HCoV-OC43, TOA was assessed by CPE reduction in MRC-5 cells and by TCID50 on Vero E6 (no IFA collected).
Figure S14. Time-of-addition (TOA) analysis of KB-2777 against HCoV-NL63 (48 h). (a) CPE-reduction assay. KB-2777 was applied at 20 µM (blue) or 5 µM (red) under the indicated TOA conditions (Full, Pre, Co, Post, DMSO).
as §1, §2, §3

[6] = tested on: HCoV-NL63; test: Primary antiviral screening (virus inhibition) in HCoV-NL63-infected LLC-MK2 cells; type: cell-based, Human coronavirus NL63
Method: For antiviral activity, cells in 96-well plates were infected and treated with test compounds as indicated and incubated for 48–72 h. Cell viability was quantified by WST (EZ-Cytox) at 450 nm on the same reader. Cytoprotective effect was calculated by normalizing to infected DMSO controls and converting to percent protection: % Protection = ((V_drug + virus − V_virus-only)/(V_mock − V_virus-only)) × 100.
as §4

[7] = tested on: HCoV-NL63; test: Extracellular viral RNA by RT-qPCR of supernatants, HCoV-NL63/LLC-MK2; type: cell-based, Human coronavirus NL63
Method: […] Viral RNA was extracted using the QIAamp Viral RNA Mini Kit (Qiagen, Hilden, Germany)according to the manufacturer’s instructions and quantified by one-step RT-qPCR on a real-time thermocycler.
as §6, §7

## COc1cccc(-c2oc(-c3ccc(C(F)(F)F)cc3)nc2C(=O)NCC2CC2)c1 [KB-2777, N-(cyclopropylmethyl)-5-(3-methoxyphenyl)-2-(4-(trifluoromethyl)phenyl)Oxazole-4-Carboxamide]
[1]
  CPE-based cell protection across TOA regimens: reproduced this pattern
[2]
  concentration at which visible crystals or precipitates formed: ≥ 50 µM
[3]; HCoV-NL63, 48 h, post-treatment, 12.5 µM and 25 µM, p < 0.0001, n = 3
  infectious titer (TCID50) vs virus control: decreased; also recorded: significant reductions
[3]; HCoV-NL63, 48 h post-infection, full/pre/co/post
  infectious titers (log10[TCID50/mL]) across TOA regimens: decreased in a regimen-dependent manner, largest with full exposure, smaller with pre- and post-treatment, and minimal with co-treatment
[4]
  EC50: 1.59 µM
[5]
  TCID50 across TOA regimens: greatest antiviral effect with full exposure, intermediate activity with pre- and post-treatment, and little or no effect with co-treatment
[6]; HCoV-NL63/LLC-MK2
  SI (=CC50/EC50): > 8 and >8.28
[6]; Human coronavirus NL63, LLC-MK2, HCoV-NL63/LLC-MK2, primary screen, read-out: EC50
  EC50: 6.04 µM
[7]; HCoV-NL63, post-treatment regimen, 24 h post-infection, 0–25 µM
  inhibition of viral RNA at 24 h: minimal
[7]; Human coronavirus NL63, LLC-MK2, HCoV-NL63, post-treatment regimen, 48 h post-infection, read-out: EC50 (viral RNA, RT-qPCR) at 48 h
  EC50: 2.42 µM
[7]; Human coronavirus NL63, LLC-MK2, HCoV-NL63, post-treatment regimen, 72 h post-infection, read-out: EC50 (viral RNA, RT-qPCR) at 72 h
  EC50: 5.25 µM
[7]; Human coronavirus NL63, HCoV-NL63/LLC-MK2, 72 h post-infection, n = 3, read-out: EC50 (viral RNA, RT-qPCR)
  EC50: 5.27 µM
